The values below come from article PMC12395000 (RSC Advances, 2025).

One experiment concerns the target EGFR (Homo sapiens, UniProt P00533). The experiment in a line: EGFR kinase inhibitory assay. Particulars: for IC50: EGFR IC50 ± SD. It counts as biochemical.
The subject of another experiment is HCT-116 cancer cells. The experiment in a line: MTT cytotoxicity assay, HCT-116. Particulars: Homo sapiens, HCT-116, 48 h, read-out: IC50 ± SD. The class given is cell-based.
In another experiment the test system is WI-38 cells. The experiment in a line: MTT cytotoxicity assay, normal WI-38. The class given is cell-based. Particulars: Homo sapiens, WI-38, 48 h, read-out: IC50 ± SD.
Experiment [1] relates to P53, Bax, caspase-3, caspase-8, caspase-9, Bcl-2 genes in HCT-116 cells. The experiment in a line: RT-PCR gene expression of apoptosis-related genes. The following applies: HCT-116, IC50 = 1.34 μM, 48 h. The class given is cell-based.
Experiment [2] deals with HCT-116 cells. The experiment in a line: Annexin V/PI staining flow cytometry. The class given is cell-based.
Experiment [3] deals with HCT-116 cells. The experiment can be described thus: DNA-content cell cycle analysis by flow cytometry. The following applies: HCT-116, IC50 = 1.34 μM, 48 h; control 54.19%. It counts as cell-based.
Where [4] appears, read: three replicates, concentrations 0.001-10 μM.

EGFR, sequence (P00533 25-1210): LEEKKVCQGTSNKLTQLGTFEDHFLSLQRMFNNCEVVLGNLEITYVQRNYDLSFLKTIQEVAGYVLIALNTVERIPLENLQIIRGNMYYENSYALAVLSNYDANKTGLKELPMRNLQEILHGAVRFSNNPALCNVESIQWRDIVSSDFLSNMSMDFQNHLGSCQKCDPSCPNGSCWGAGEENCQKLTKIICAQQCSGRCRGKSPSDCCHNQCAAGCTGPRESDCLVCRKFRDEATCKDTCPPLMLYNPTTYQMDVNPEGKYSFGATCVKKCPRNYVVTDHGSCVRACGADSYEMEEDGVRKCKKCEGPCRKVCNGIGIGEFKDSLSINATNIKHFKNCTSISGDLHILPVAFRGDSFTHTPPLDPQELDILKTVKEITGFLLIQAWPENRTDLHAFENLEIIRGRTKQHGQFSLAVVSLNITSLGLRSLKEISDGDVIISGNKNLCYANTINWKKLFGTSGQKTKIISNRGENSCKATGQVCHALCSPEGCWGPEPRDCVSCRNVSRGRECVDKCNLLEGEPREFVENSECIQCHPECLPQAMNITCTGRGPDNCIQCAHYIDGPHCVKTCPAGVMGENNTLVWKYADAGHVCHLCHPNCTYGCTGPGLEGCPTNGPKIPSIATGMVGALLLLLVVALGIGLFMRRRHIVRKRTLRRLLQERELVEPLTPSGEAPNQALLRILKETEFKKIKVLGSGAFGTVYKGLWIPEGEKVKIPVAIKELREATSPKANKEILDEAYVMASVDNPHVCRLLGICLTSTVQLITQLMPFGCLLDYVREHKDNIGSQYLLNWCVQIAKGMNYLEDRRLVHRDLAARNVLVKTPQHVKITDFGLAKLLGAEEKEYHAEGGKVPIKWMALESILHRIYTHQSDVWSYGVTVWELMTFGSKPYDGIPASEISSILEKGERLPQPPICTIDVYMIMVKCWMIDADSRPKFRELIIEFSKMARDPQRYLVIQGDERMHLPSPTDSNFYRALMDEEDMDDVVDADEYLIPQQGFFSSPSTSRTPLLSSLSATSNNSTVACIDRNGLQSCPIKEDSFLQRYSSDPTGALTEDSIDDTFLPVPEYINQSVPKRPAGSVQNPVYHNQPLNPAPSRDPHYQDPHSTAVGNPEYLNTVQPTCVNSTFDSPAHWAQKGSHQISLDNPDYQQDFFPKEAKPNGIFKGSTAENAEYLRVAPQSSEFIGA

For the molecule `Cc1[nH]c(=O)nc2c1c(=O)oc1ccc3ccccc3c12` [Compound 16, 4-Methyl-2H-benzo[5,6]chromeno[4,3-d]pyrimidine-2,5(3H)-dione], the “EGFR IC50 ± SD” value on EGFR (setting [4]) is on record as “non-detected”. The IC50 is 6.46 µM in the experiment with HCT-116 cancer cells and no less than 50 µM with WI-38 cells.
Take `CC1=C(C(=O)Nc2cccnc2)C(c2ccc3ccc4cccc5ccc2c3c45)NC(=S)N1` (stereo not drawn) [Compound 4c, 6-Methyl-4-(pyren-1-yl)-N-(pyridin-3-yl)-2-thioxo-1,2,3,4-tetrahydropyrimidine-5-carboxamide]: the IC50 at EGFR (setting [4]) is 0.0949 ± 0.00495 µM; with HCT-116 cancer cells, 1.9 ± 0.3 µM; in the experiment with WI-38 cells, no less than 50 µM.
Turning to `CC1=C(C(=O)Nc2ccccc2)C(c2ccc3ccc4cccc5ccc2c3c45)NC(=S)N1` (stereo not drawn) [Compound 4a, 6-Methyl-N-phenyl-4-(pyren-1-yl)-2-thioxo-1,2,3,4-tetrahydropyrimidine-5-carboxamide], the IC50 against EGFR (setting [4]) was 0.104 ± 0.00567 µM; with HCT-116 cancer cells, 4.8 µM; in the experiment on WI-38 cells it was no less than 50 µM. Besides, on EGFR (concentration not given), the EGFR inhibition percentage amounted to 82.3%.
Turning to `CC1=C(C(=O)Nc2ccccn2)C(c2ccc3ccc4cccc5ccc2c3c45)NC(=S)N1` (stereo not drawn) [Compound 4b, 6-Methyl-4-(pyren-1-yl)-N-(pyridin-2-yl)-2-thioxo-1,2,3,4-tetrahydropyrimidine-5-carboxamide], in experiment [1], the “Bax gene expression fold change” value turned out to be 3.54 fold change, the “P53 gene expression fold change” value is reported as 6.85 fold change, the “caspase-3 gene expression fold change” value was determined as 8.37 fold change and the “caspase-8 gene expression fold change” value came to 2.3 fold change. Moreover, in experiment [1], the “caspase-9 gene expression fold change” value was 6.80 fold change. Moreover, the “Bcl-2 gene expression fold change” value in experiment [1] (antiapoptotic gene, decreased) turned out to be 0.37 fold change. Also, the 50% inhibitory concentration (IC50) against EGFR (setting [4]) was found to be 0.077 ± 0.00436 µM. For the same molecule, the “apoptosis induction versus control” value in the experiment with HCT-116 cells [2] (HCT-116) was 30.2 fold. In the experiment on HCT-116 cells [2] (HCT-116, IC50 = 1.34 μM, 48 h, Q1, control 2.13%), this molecule returned a necrosis of 5.58%. For the same molecule, the late apoptosis in the experiment on HCT-116 cells [2] (HCT-116, IC50 = 1.34 μM, 48 h, Q2) is recorded as 7.36%. The same molecule showed an early apoptosis in the experiment with HCT-116 cells [2] (HCT-116, IC50 = 1.34 μM, 48 h, Q4) of 19.24%. Besides, in the experiment on HCT-116 cells [2] (HCT-116, treated at IC50 = 1.34 μM, 48 h, control 0.88%), the “cells that died by apoptosis (total)” value was 26.60%. In addition, in the experiment on HCT-116 cells [3], the “cell population at G1-phase (%DIP G1)” value is listed as 87.55%. In the experiment with HCT-116 cancer cells, the half-inhibitory concentration (IC50) came out at 1.34 ± 0.4 µM. In addition, the half-inhibitory concentration (IC50) in the experiment with WI-38 cells was no less than 50 µM.
Turning to `C#Cc1cccc(Nc2ncnc3cc(OCCOC)c(OCCOC)cc23)c1` [Erlotinib, reference compound], the IC50 with HCT-116 cancer cells was 1.32 ± 0.2 µM; in the experiment on WI-38 cells it was no less than 50 µM.
